Source: patent US20230293526A1, “METHOD FOR TREATING CANCER WITH A REVERSE TRANSCRIPTASE INHIBITOR” (PrimeFour Therapeutics, Inc., priority 2020, published 2023)

How the values were obtained:
Assay in all cases: Cell proliferation CellTiterGlo Ex.2
Type in all cases: cell-based
[1] = tested on: Hs 746T; conditions: Homo sapiens, Hs746T; Hs 746T (Stomach), 72 h
Method in brief: (§1)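 Cells were seeded, incubated overnight at 37 °C, then dosed at 10, 3, 1, 0.3, 0.1, 0.03, 0.01 and 0.003 μM for 72 h (5% or 10% CO2). CellTiterGlo luminescence gave percent viability relative to 0.10% DMSO (high) and 10 μM staurosporine (low) controls.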

[2] = tested on: SCH; conditions: SCH (Stomach), 72 h
Method in brief: as §1

[3] = tested on: A498; conditions: Homo sapiens; A498 (Kidney), 72 h
Method in brief: as §1

[4] = tested on: MDA-MB-468; conditions: Homo sapiens; MDA-MB-468 (Breast), 72 h
Method in brief: as §1

[5] = tested on: SK-N-MC; conditions: Homo sapiens; SK-N-MC (Brain), 72 h
Method in brief: as §1

[6] = tested on: EFM-19; conditions: Homo sapiens; EFM-19 (Breast), 72 h
Method in brief: as §1

[7] = tested on: DU-145; conditions: Homo sapiens; DU-145 (Prostate), 72 h
Method in brief: as §1

[8] = tested on: Hutu 80; conditions: Homo sapiens, HuTu80; Hutu 80 (Duodenum), 72 h
Method in brief: as §1

[9] = tested on: EPLC-272H; conditions: Homo sapiens; EPLC-272H (Lung), 72 h
Method in brief: as §1

[10] = tested on: MCF-7; conditions: Homo sapiens, MCF7; MCF-7 (Breast), 72 h
Method in brief: as §1

[11] = tested on: Calu-6; conditions: Homo sapiens; Calu-6 (Lung), 72 h
Method in brief: as §1

[12] = tested on: OCI-AML5; conditions: Homo sapiens, OCI-AML-5; OCI-AML5 (Blood), 72 h
Method in brief: as §1

[13] = tested on: MDA MB 231; conditions: Homo sapiens; MDA MB 231 (Breast), 72 h
Method in brief: as §1

[14] = tested on: OCI-LY19; conditions: Homo sapiens; OCI-LY19 (Blood), 72 h
Method in brief: as §1

[15] = tested on: LOU-NH91; conditions: LOU-NH91 (Lung), 72 h
Method in brief: as §1

[16] = tested on: COR-L279; conditions: Homo sapiens; COR-L279 (Lung), 72 h
Method in brief: as §1

[17] = tested on: H2228; conditions: Homo sapiens, NCI-H2228; H2228 (Lung), 72 h
Method in brief: as §1

[18] = tested on: SW948; conditions: Homo sapiens; SW948 (Colon), 72 h
Method in brief: as §1

[19] = tested on: Saos-2 EC; conditions: Homo sapiens; Saos-2 EC (Bone), 72 h
Method in brief: as §1

[20] = tested on: NCI-H441; conditions: Homo sapiens; NCI-H441 (Lung), 72 h
Method in brief: as §1

[21] = tested on: HCC202; conditions: HCC202 (Breast), 72 h
Method in brief: as §1

[22] = tested on: NCI-H2110; conditions: NCI-H2110 (Lung), 72 h
Method in brief: as §1

[23] = tested on: NCI-H1581; conditions: Homo sapiens; NCI-H1581 (Lung), 72 h
Method in brief: as §1

[24] = tested on: U251MG; conditions: Homo sapiens, U-251; U251MG (Brain), 72 h
Method in brief: as §1

[25] = tested on: HCC827; conditions: Homo sapiens; HCC827 (Lung), 72 h
Method in brief: as §1

[26] = tested on: MV4-11; conditions: Homo sapiens; MV4-11 (Blood), 72 h
Method in brief: as §1

[27] = tested on: A431; conditions: Homo sapiens, A-431; A431 (Skin), 72 h
Method in brief: as §1

[28] = tested on: COV434; conditions: COV434 (Ovary), 72 h
Method in brief: as §1

[29] = tested on: HeLa; conditions: Homo sapiens; HeLa (Cervix), 72 h
Method in brief: as §1

[30] = tested on: LnCap; conditions: Homo sapiens; LnCap (Prostate), 72 h
Method in brief: as §1

[31] = tested on: DV90; conditions: Homo sapiens, DV-90; DV90 (Lung), 72 h
Method in brief: as §1

[32] = tested on: RPMI 8226; conditions: Homo sapiens; RPMI 8226 (Blood), 72 h
Method in brief: as §1

[33] = tested on: SNU-1; conditions: Homo sapiens, SNU1; SNU-1 (Stomach), 72 h
Method in brief: as §1

C#C[C@]1(CO)O[C@@H](n2cnc3c(=O)[nH]c(N)nc32)C[C@@H]1O [compound 13]
IC50 [1]: 5.39 µM
IC50 [2]: 0.29 µM
IC50 [3]: > 10 µM
IC50 [4]: > 10 µM
IC50 [5]: 3.19 µM
IC50 [6]: 2.65 µM
IC50 [7]: 5.73 µM
IC50 [8]: 1.44 µM
IC50 [9]: 6.63 µM
IC50 [10]: > 10 µM
IC50 [11]: > 10 µM
IC50 [12]: 1.37 µM
IC50 [13]: 3.85 µM
IC50 [14]: 0.56 µM
IC50 [15]: > 10 µM
IC50 [16]: > 10 µM
IC50 [17]: > 10 µM
IC50 [18]: 5.02 µM
IC50 [19]: 3.99 µM
IC50 [20]: 3.64 µM
IC50 [21]: > 10 µM
IC50 [22]: 3.41 µM
IC50 [23]: 2.97 µM
IC50 [24]: > 10 µM
IC50 [25]: 4.47 µM
IC50 [26]: 0.21 µM
IC50 [27]: 5.06 µM
IC50 [28]: 4.41 µM
IC50 [29]: 1.3 µM
IC50 [30]: > 10 µM
IC50 [31]: 1.59 µM
IC50 [32]: > 10 µM
IC50 [33]: 2.89 µM
